Laboratory results as given in PMC6271425, “Synthesis and Sar Study of Diarylpentanoid Analogues as New Anti-Inflammatory Agents” (Molecules, 2014).
Like-named read-outs stand apart in the source and are kept apart here.

Columns and labels:
[1] = system: NO production in IFN-γ/LPS-stimulated RAW 264.7 macrophages; experiment: NO suppression (Griess nitrite determination) in IFN-γ/LPS-stimulated RAW 264.7 macrophages; format: cell-based, murine; conditions: for NO Inhibition at 50 µM (%) ± S.E.M: 50 µM test concentration; for inhibition at 50 µM: RAW264.7, 50 µM test concentration, read-out: NO Inhibition at 50 µM (%) ± S.E.M
Protocol: The synthesized compounds were screened for NO suppression activity in IFN-γ/LPS-stimulated RAW 264.7 macrophages at a 50 µM test concentration. […] The IC50 values of the fifty-seven bioactive compounds were determined and compared to that of the positive control, curcumin. An MTT assay was also carried out to confirm that NO inhibition was not due to cytotoxicity. […] The complete bioassay results of all the compounds are provided as Table S2 in Supplementary Data. RAW 264.7 murine macrophages cells obtained from American Type Culture Collection (ATCC, Rockville, MD, USA) were grown in Dulbecco’s Modified Eagle’s Medium (DMEM) containing 10% fetal bovine serum (FBS) and 1% penicillin/streptomycin in a 95% air and 5% CO2 atmosphere at 37 °C. RAW 264.7 cells at 90%–95% confluency were detached and seeded (50,000 cells/well) into a 96-well culture plate with 50 μL of DMEM and incubated for 24 h. The cells were then stimulated in […] of LPS (Escherichia coli, serotype 0111:B4) and 1 ng/ml of interferon-gamma (IFN-γ) in the presence or absence of test compounds for 17 h. Nitrite concentration was then determined by Griess assay by reacting 50 μL of cell culture supernatant with 50 μL of Griess reagent (1% sulfanilamide and 0.1% N-(1-naphthyl)ethylenediamine dihydrochloride in 2.5% phosphoric acid) at room temperature. The optical density was measured at 550 nm after 5 min of incubation at room temperature with a microplate reader.

[2] = Cell cytotoxicity determination (MTT assay); format: cell-based, murine; conditions: mouse, RAW 264.7 macrophage cells, RAW 264.7 cells, read-out: Cytotoxicity IC50 (µM) ± S.E.M
Protocol: The synthesized compounds were screened for NO suppression activity in IFN-γ/LPS-stimulated RAW 264.7 macrophages at a 50 µM test concentration. […] The IC50 values of the fifty-seven bioactive compounds were determined and compared to that of the positive control, curcumin. An MTT assay was also carried out to confirm that NO inhibition was not due to cytotoxicity. […] The complete bioassay results of all the compounds are provided as Table S2 in Supplementary Data.
RAW 264.7 murine macrophages cells obtained from American Type Culture Collection (ATCC, Rockville, MD, USA) were grown in Dulbecco’s Modified Eagle’s Medium (DMEM) containing 10% fetal bovine serum (FBS) and 1% penicillin/streptomycin in a 95% air and 5% CO2 atmosphere at 37 °C.
Supernatant in each well was removed followed by addition of 100 µL DMEM. Subsequently, 20 µL of 3-(4,5-dimethylthiazol-2-yl)-2,5-diphenyltetrazolium bromide (MTT, 5 mg/mL) was then added and the plate was incubated in a 95% air and 5% CO2 atmosphere at 37 °C for 4 h. The mixture of culture media and MTT in all wells were removed and the purplish formazan crystals formed were dissolved in dimethyl sulfoxide (DMSO) and further incubated for 15 min at room temperature. The color intensity was then measured at 570 nm at room temperature.

[3] = IFN-γ/LPS-stimulated RAW 264.7 cells
[4] = Mus musculus, IFN-γ/LPS-stimulated RAW 264.7 cells
[5] = Mus musculus, RAW264.7, IFN-γ/LPS-stimulated RAW 264.7 cells, read-out: NO Inhibition IC50 (µM) ± S.E.M
[6] = Mus musculus, RAW264.7, Table 6, NO suppression IC50 used for QSAR, unit inferred, read-out: IC50
[7] = Mus musculus, RAW264.7, −log IC50 of NO suppression, read-out: pIC50 (converted)
[8] = IFN-γ/LPS-stimulated RAW 264.7 cells, read-out: NO Inhibition IC50 (µM) ± S.E.M

SMILES | IC50 [1, 5] [µM] | IC50 [1, 6] [µM] | IC50 [1, 7] [µM] | IC50 [1, 8] [µM] | NO Inhibition at 50 µM (%) ± S.E.M [1, 3] [%] | inhibition at 50 µM [1, 4] [%] | IC50 [2] [µM]
COc1cccc(/C=C/C(O)=C/C(=O)c2ccccc2O)c1 [Compound 6] | 31.6 ± 0.632 | 31.6 ± 0.6 | 31.6 |  | 81.6 ± 4.0 | 81.6 ± 3.97 | > 100
O=C(/C=C(O)/C=C/c1ccco1)c1ccccc1O [Compound 12] | 49 ± 1.05 | 49 ± 1 | 49 |  | 82.0 ± 3.2 | 82 ± 3.18 | > 100
O=C(/C=C(O)/C=C/c1cccs1)c1ccccc1O [Compound 16] | 42.64 ± 0.128 | 42.6 ± 0.1 | 42.7 |  | 79.1 ± 4.6 | 79.1 ± 4.58 | > 100
Cc1ccc(/C=C/C(O)=C/C(=O)c2ccccc2O)s1 [Compound 18] | 39.6 ± 4.13 | 39.6 ± 4.1 | 39.8 |  | 58.9 ± 5.8 | 58.9 ± 5.76 | > 100
O=C(/C=C(O)/C=C/c1ccccc1)c1cc(Cl)ccc1O [Compound 21] | 47.6 ± 1.14 | 47.6 ± 1.1 | 47.9 |  | 85.3 ± 6.8 | 85.3 ± 6.76 | > 100
O=C(/C=C(O)/C=C/c1ccccc1Cl)c1cc(Cl)ccc1O [Compound 22] | 30 ± 2.1 | 30 ± 2.1 | 30.2 |  | 82.5 ± 4.3 | 82.5 ± 4.32 | > 100
O=C(/C=C(O)/C=C/c1cccc(Cl)c1)c1cc(Cl)ccc1O [Compound 23] | 36.2 ± 0.922 | 36.2 ± 0.9 | 36.3 |  | 66.6 ± 4.1 | 66.6 ± 4.11 | 68.4 ± 2.2
COc1ccccc1/C=C/C(O)=C/C(=O)c1cc(Cl)ccc1O [Compound 24] | 36 ± 0.515 | 36 ± 0.5 | 36.3 |  | 70.4 ± 1.3 | 70.4 ± 1.32 | > 100
O=C(/C=C(O)/C=C/c1cccs1)c1cc(Cl)ccc1O [Compound 35] | 32.17 ± 0.176 | 32.2 ± 0.2 | 32.4 |  | 68.8 ± 4.2 | 68.8 ± 4.21 | > 100
Cc1ccc(/C=C/C(O)=C/C(=O)c2cc(Cl)ccc2O)s1 [Compound 37] | 62.4 ± 2.29 | 62.4 ± 2.3 | 63.1 |  | 56.0 ± 2.6 | 56 ± 2.62 | > 100
COc1ccc(C(=O)/C=C(O)/C=C/c2ccccc2Cl)c(O)c1 [Compound 46] | 58.5 ± 2.45 | 58.5 ± 2.4 | 58.9 |  | 76.2 ± 4.6 | 76.2 ± 4.57 | > 100
COc1cccc(/C=C/C(O)=C/C(=O)c2ccc(OC)cc2O)c1 [Compound 49] | 45.8 ± 0.804 | 45.8 ± 0.8 | 45.7 |  | 57.5 ± 6.5 | 57.5 ± 6.45 | > 100

Further compounds by falling IC50 [1, 5], results first:

IC50 [1, 5] [µM] | IC50 [1, 6] [µM] | IC50 [1, 7] [µM] | IC50 [1, 8] [µM] | SMILES | NO Inhibition at 50 µM (%) ± S.E.M [1, 3] [%] | inhibition at 50 µM [1, 4] [%] | IC50 [2] [µM]
29.5 ± 0.469 | 29.5 ± 0.5 | 29.5 |  | COc1ccc(C(=O)/C=C(O)/C=C/c2ccccc2)c(O)c1 [Compound 45] |  | 87.9 ± 5.1 | > 100
29.4 ± 0.7 | 29.4 ± 0.7 | 29.5 |  | O=C(/C=C(O)/C=C/c1cccc(Br)c1)c1ccccc1O [Compound 4] | 88.4 ± 3.2 | 88.4 ± 3.21 | > 100
28.4 ± 0.435 | 28.4 ± 0.4 | 28.2 |  | COc1ccc(OC)c(/C=C/C(O)=C/C(=O)c2ccccc2O)c1 [Compound 14] |  | 92.9 ± 0.2 | > 100
27.32 ± 0.234 | 27.3 ± 0.2 | 27.5 |  | O=C(/C=C(O)/C=C/c1ccccc1Cl)c1ccccc1O [Compound 2] |  | 91 ± 2.9 | > 100
26.7 ± 0.732 | 26.7 ± 0.7 | 26.9 |  | O=C(/C=C(O)/C=C/c1cccc(Cl)c1)c1ccccc1O [Compound 3] | 93.0 ± 3.4 | 93 ± 3.43 | > 100
25.7 ± 0.621 | 25.7 ± 0.6 | 25.7 |  | COc1ccccc1/C=C/C(O)=C/C(=O)c1ccccc1O [Compound 5] | 91.8 ± 1.5 | 91.8 ± 1.49 | > 100
25.5 ± 1.03 | 25.5 ± 1 | 25.7 |  | Cc1ccc(/C=C/C(O)=C/C(=O)c2cc(Cl)ccc2O)o1 [Compound 38] | 73.8 ± 1.1 | 73.8 ± 1.14 | > 100
25.3 ± 1.73 | 25.3 ± 1.7 | 25.1 |  | O=C(/C=C(O)/C=C/c1ccc(Cl)s1)c1cc(Cl)ccc1O [Compound 36] | 71.6 ± 3.2 | 71.5 ± 3.2 | > 100
24.6 ± 0.73 | 24.6 ± 0.7 | 24.5 |  | COc1ccc(/C=C/C(O)=C/C(=O)c2ccccc2O)cc1OC [Compound 8] | 94.7 ± 1.7 | 94.7 ± 1.7 | > 100
23 ± 1.7 | 23 ± 1.7 | 22.9 |  | O=C(/C=C(O)/C=C/c1cccc2ccccc12)c1ccccc1O [Compound 19] | 85.8 ± 3.9 | 85.8 ± 3.93 | > 100
22.6 ± 0.515 | 22.6 ± 0.5 | 22.4 |  | O=C(/C=C(O)/C=C/c1ccccc1)c1ccccc1O [Compound 1] | 94.7 ± 1.2 | 94.7 ± 1.2 | 56.2 ± 1.1
20.8 ± 0.54 | 20.8 ± 0.5 | 20.9 |  | O=C(/C=C(O)/C=C/c1ccccc1)c1cc(Br)ccc1O [Compound 41] |  | 79.9 ± 8.7 | > 100
19.8 ± 0.907 | 19.8 ± 0.9 | 20 | < 20 | O=C(/C=C(O)/C=C/c1cccc(Cl)c1)c1cc(Br)ccc1O [Compound 43] | 81.2 ± 5.2 | 81.2 ± 5.16 | > 100
17.4 ± 0.372 | 17.4 ± 0.4 | 17.4 | < 20 | COc1cccc(/C=C/C(O)=C/C(=O)c2cc(Cl)ccc2O)c1 [Compound 25] | 76.3 ± 6.5 | 76.3 ± 6.48 | > 100
16.7 ± 0.557 | 16.7 ± 0.6 | 16.6 | < 20 | O=C(/C=C(O)/C=C/c1cc(O)ccc1O)c1ccccc1O [Compound 83] | 94.3 ± 1.8 | 94.3 ± 1.83 | 
16.6 ± 1.14 | 16.6 ± 1.1 | 16.6 | < 20 | COc1cc(/C=C/C(O)=C/C(=O)c2ccccc2O)cc(OC)c1OC [Compound 9] | 96.6 ± 1.4 | 96.6 ± 1.43 | > 100
13.6 ± 0.532 | 13.6 ± 0.5 | 13.5 | < 20 | COc1cc(/C=C/C(O)=C/C(=O)c2cc(Cl)ccc2O)cc(OC)c1OC [Compound 28] |  | 89.5 ± 5.9 | > 100
